Among the data in publication PMC12040169 (PLOS Biology, 2025) are viability values, retold here.

A short description of this series: in vitro. To be noted: human, hela cells, % viability.
`Cc1nn(Cc2ccccc2)c(C)c1CNC(=O)c1nc(Cl)ccc1Cl` [CBK297928]: the viability (usually a read-out of living cells in per cent, often relative to untreated cells) at 28.5 h, 10 µM amounted to 93.8%.
Under `CC(=O)c1ccccc1NC(=O)c1cc2ccc(F)cc2nc1C` [CBK297929] stands 89.2%; under `CC(C)CN1CCOC(CNC(=O)c2cc(O)nc3ccccc23)C1` (centres unmarked) [CBK297931], 80.6%; under `Cc1nc2ccccc2nc1COC(=O)c1ccc(S(=O)(=O)N2CCCCC2C)cc1` (centres unmarked) [CBK297932], 90.7%.
Under `O=C(NCC1(N2CCOCC2)CCCCC1)c1ccccc1C(=O)c1ccc(F)cc1` [CBK297938] stands 81%.
Under `Cc1cccc(-c2n[nH]c(=S)n2CC(=O)NCc2cn(-c3ccccc3)nc2-c2ccccc2)c1` [CBK297941] stands 88.1%; under `Cc1cccc(-c2n[nH]c(=S)n2CC(=O)NCCCS(=O)(=O)Cc2ccccc2)c1` [CBK297942], 103%; under `COc1ccc(NS(=O)(=O)c2cc(C(=O)O)sc2Br)cn1` [CBK297943], 81.8%.
As for `COc1ccc(NC(=O)C2CC3CCC2C3)cc1S(=O)(=O)Nc1ccc(Cl)cc1` (centres unmarked) [CBK297945], the viability at 28.5 h, 10 µM worked out at 79.4%.
With `Cc1cc(S(=O)(=O)Nc2ccc(C(C)(C)C)cc2)sc1C(=O)O` [CBK297946], the viability at 28.5 h, 10 µM turned out to be 88.1%.
In the case of `O=C(NCc1cccnc1-n1cccn1)c1c[nH]c(C(=O)N2CCCC2)c1` [CBK298263] it was 99.1%.
In the case of `COc1ccc(C)cc1C(O)CN1CCOC(c2ccc(F)cc2)C1` (centres unmarked) [CBK298264] it was 95.5%.
In the case of `CC(NC(=O)Nc1ccc(C(=O)NC(C)(C)C)cc1)c1cccc(Cl)c1` (centres unmarked) [CBK298265] it was 87.8%.
Take `CSc1nc(C)c(CCC(=O)Nc2ccc(N3CC(C)OC(C)C3)nc2)c(C)n1` (centres unmarked) [CBK298266]: the viability at 28.5 h, 10 µM came to 87.4%.
For `COc1ccc2cc(COC(=O)c3ccc([S+](C)[O-])cc3)c(Cl)nc2c1` (centres unmarked) [CBK298267], the viability at 28.5 h, 10 µM came out at 99.5%.
In the case of `O=C(C1CC1)N1CCC(C(=O)N(Cc2ccco2)c2ccccc2)CC1` [CBK298269] it was 85.8%.
In the case of `Cc1ccc(C2=CCN(C(=O)c3cccc(S(=O)(=O)N(C)C)c3)CC2)cc1` [CBK298273] it was 90.9%.
In the case of `Cc1ncc(CN(C)C(C)C(=O)Nc2ccccc2N2CCCC2=O)s1` (centres unmarked) [CBK298274] it was 92%; in that of `Cc1ccc(Cc2cnc(NC(=O)c3ccoc3C)s2)cc1C` [CBK298277], 80.1%; in that of `COc1ccc(OC)c(CN(C(=O)c2oc3ccc(F)cc3c2C)c2cnn(C)c2)c1` [CBK298278], 89.1%.
With `COc1ccc(-c2noc(COc3cccc(C(=O)O)c3)n2)c(OC)c1` [CBK298279], the viability at 28.5 h, 10 µM came out at 101%.
In the case of `Cc1ccc(Cn2ncc3c(C(=O)N4CCC(N(C)S(C)(=O)=O)CC4)cc(C)nc32)cc1` [CBK298280] it was 102%; in that of `Cc1cc(Cc2cnc(NC(=O)C3CCS(=O)(=O)C3)s2)ccc1Br` (centres unmarked) [CBK298281], 90%; in that of `COc1ccc(SC(C)C(=O)N2CCN(c3ccc([N+](=O)[O-])nc3)CC2)cc1` (centres unmarked) [CBK298282], 93.5%.
In the case of `CN(Cc1cccnc1)C(=O)CSC(c1ccccc1)c1ccccc1` [CBK298284], the viability at 28.5 h, 10 µM came out at 90.7%.
In the case of `Cc1cn2nc(N3CCN(S(=O)(=O)c4ccccc4[N+](=O)[O-])CC3)sc2n1` [CBK298288] it was 111%.
Under `CCOc1cc(-c2nc3sc(CC)cc3c(=O)[nH]2)ccc1OCC(=O)O` [CBK298291] stands 88.4%.
Under `O=C(Nc1ncc(-c2ccccc2)s1)c1csc([N+](=O)[O-])c1` [CBK298293] stands 87.4%.
As for `COC(=O)c1cccc(C(=O)Nc2ncc(-c3ccccc3)s2)c1` [CBK298294], the viability at 28.5 h, 10 µM is 89.7%.
In the case of `CN(C)C(CNS(=O)(=O)c1cc2c(cc1Br)NC(=O)CO2)c1ccc(F)cc1` (centres unmarked) [CBK298296] it was 105%; in that of `COc1cc(CNC(=O)c2ccc(O)nc2)ccc1OCc1ccncc1` [CBK298297], 96.9%.
As for `Cc1nnc(C(C)Sc2nnc(-c3ccc(F)cc3)n2CC2CCCO2)o1` (centres unmarked) [CBK298298], the viability at 28.5 h, 10 µM stood at 94.4%.
As for `Cc1cc(C(=O)NCc2ccnc(N3CCOCC3)c2)c(C)n1-c1cccc(Cl)c1` [CBK298301], the viability at 28.5 h, 10 µM is 81.9%.
As to `CCN(CC)CCn1c(NC(=O)c2c(Cl)nc3ccccn23)nc2ccccc21` [CBK298305], the viability at 28.5 h, 10 µM was found to be 107%.
In the case of `CN(Cc1cc(Br)cs1)C(=O)CCN1C(=O)COc2ccccc21` [CBK298308] it was 90%; in that of `CCc1c(C(=O)NCc2cccnc2-n2cncn2)cnn1-c1ccc(OC)nn1` [CBK298309], 90.5%.
As to `Cc1cccn2cc(COC(=O)c3ccc(F)cc3N)nc12` [CBK298310], the viability at 28.5 h, 10 µM was found to be 54.1%.
For the compound `CCOc1ccc(C(=O)N2CCN(S(=O)(=O)c3ccc(C)cc3C)CC2)cn1` [CBK298313], the viability at 28.5 h, 10 µM came to 93.3%.
In the case of `COc1ccc(CC(=O)O)cc1S(=O)(=O)Nc1ccc(SC)cc1` [CBK298315] it was 81%.
`Cc1nc([N+](=O)[O-])cn1CCC(=O)Nc1ccccc1Oc1ccccc1Cl` [CBK298319]: the viability at 28.5 h, 10 µM stood at 101%.
Consider `O=C(NCC(O)COc1ccccc1)c1cnn2c(-c3ccccc3)ccnc12` (centres unmarked) [CBK298320], for which the viability at 28.5 h, 10 µM is 99%.
For `Cc1ccc(CC(C#N)Sc2nc(CN3CCOCC3)nc3ccccc23)cc1` (centres unmarked) [CBK298321], the viability at 28.5 h, 10 µM came to 82%.
Turning to `Cc1ccc(-c2nc(C)c(C(=O)NCc3ccnc(-n4ccnc4)c3)s2)o1` [CBK298322], the viability at 28.5 h, 10 µM amounted to 105%.
Under `O=C(Nc1ccc(Oc2ncccn2)cc1)c1csc(-c2ccccc2)n1` [CBK298324] stands 85.5%; under `O=C(O)c1ccn(-c2ccc(NS(=O)(=O)c3ccc(N4CCCC4=O)cc3)cc2)n1` [CBK298327], 102%.
On to `CC(SCc1ccccc1)C(=O)NCC1CCN(c2ccccc2)C1` (centres unmarked) [CBK298329], for which the viability at 28.5 h, 10 µM is 89.5%.
As to `COc1ccccc1CN(C(=O)Nc1ccccc1Cl)C1CC1` [CBK298332], the viability at 28.5 h, 10 µM was 97.2%.
Under `COc1cccc(NS(=O)(=O)c2cc(CC(=O)O)ccc2OC)c1` [CBK298333] stands 93.9%; under `NC(=O)c1ccccc1NC(=O)Cc1ccc2c(c1)CCCC2` [CBK298334], 88.9%; under `COc1cc(C(C)NC(=O)c2ccc(=O)[nH]n2)ccc1OC1CCCC1` (centres unmarked) [CBK298335], 89.7%.
Under `Cc1nccn1CC(C)CNc1ccc(C(=O)c2ccccc2)cc1[N+](=O)[O-]` (centres unmarked) [CBK298336] stands 80.4%; under `O=C(NC1CCCN(c2ncccn2)C1)c1ccc(-c2ccc(F)cc2)s1` (centres unmarked) [CBK298337], 88.5%; under `Cc1[nH]c2c(C(=O)Nc3cccc(CN4CCOC4=O)c3)cccc2c1C` [CBK298338], 90.3%.
Under `O=C(Cc1csc(-c2c(Cl)cccc2Cl)n1)NC[C@H]1CC[C@H](C(=O)O)CC1` [CBK299767] stands 85.7%.
On to `CC(C)(CC(=O)O)CC(=O)Nc1ccc2c(c1)ncn2CCc1ccccc1` [CBK299768], for which the viability at 28.5 h, 10 µM turned out to be 91.7%.
As to `CC1Oc2ccc(S(=O)(=O)Nc3ccc(CCC(=O)O)cc3)cc2NC1=O` (centres unmarked) [CBK299769], the viability at 28.5 h, 10 µM was 92.3%.
In the case of `Cc1cc2c(cc1S(=O)(=O)NCCOc1cccc(C(=O)O)c1)OCC(=O)N2` [CBK299770] it was 88.3%.
In the case of `CCOc1ccc(-c2cc(C(=O)Nc3cccc(C(=O)O)c3)no2)cc1` [CBK299776] it was 93.9%; in that of `O=C(O)c1cccc(NC(=O)c2ccc(COc3ccc(-c4ccccc4)cc3)o2)c1` [CBK299778], 105%.
Under `O=C(O)c1cccc(OCCNS(=O)(=O)c2ccc(N3CCCC3=O)cc2)c1` [CBK299779] stands 97.3%.
Take `CS(=O)(=O)N1CCCC(C(=O)Nc2cccc3cccnc23)C1` (centres unmarked) [CBK299783]: the viability at 28.5 h, 10 µM is 90.8%.
Consider `O=C(O)C1CC=CCC1C(=O)N1CCN(C(=O)c2ccco2)CC1` (centres unmarked) [CBK299784], for which the viability at 28.5 h, 10 µM came to 94.1%.
Under `O=C(CSc1n[nH]c(=O)n1C1CCCCC1)NCc1ccc(N2CCCC2=O)cc1` [CBK299785] stands 105%; under `CCOc1ccc2nc(NS(=O)(=O)c3cc(C(=O)O)c(Cl)cc3Cl)sc2c1` [CBK299789], 109%; under `CCCCOc1ccc(-c2nonc2NC(=O)COc2ccccc2Cl)cc1` [CBK299792], 117%.
In the case of `O=C(O)c1cccc(S(=O)(=O)Nc2nc3ccc(Cl)cc3s2)c1` [CBK299793] it was 103%; in that of `CC(=O)c1cccc(NC(=O)Nc2ccc(S(=O)(=O)Nc3cc(C)on3)cc2)c1` [CBK299794], 111%.
In the case of `CC(C)(CC(=O)O)CC(=O)Nc1ccc(-c2nc3ccccc3s2)cc1` [CBK299796] it was 104%; in that of `CC(=O)c1ccc(NC(=O)CSc2ncccc2C(=O)O)cc1` [CBK299798], 94.4%.
Take `O=C(O)CCCNS(=O)(=O)c1ccc(C2CCCCC2)cc1` [CBK299800]: the viability at 28.5 h, 10 µM was determined as 95.2%.
In the case of `CC(C)CC(=O)Nc1ccc2nc(SCC(=O)O)sc2c1` [CBK299801], the viability at 28.5 h, 10 µM came out at 96.4%.
Under `COc1cccc(-c2csc(NS(=O)(=O)c3ccc(C)c(C(=O)O)c3)n2)c1` [CBK299803] stands 99.1%; under `O=C(O)c1cc(S(=O)(=O)NCCCN2CCOCC2)ccc1Cl` [CBK299804], 96.8%; under `O=C(O)c1cc(/C=C/c2ccc(Br)cc2)nc2ccccc12` [CBK299805], 94.3%.
Under `CC(=O)N(c1ccc2oc3c(c2c1)CCCC3)S(=O)(=O)c1ccc(C(=O)O)cc1` [CBK299808] stands 92.5%.
Turning to `O=C(O)c1cccc(N2C(=O)c3cccc4c(C(=O)c5ccccc5)ccc(c34)C2=O)c1` [CBK299809], the viability at 28.5 h, 10 µM was determined as 74.2%.
In the case of `CCOc1ccc(S(=O)(=O)Nc2ccc(O)c(C(=O)O)c2)cc1` [CBK299810] it was 93.5%.
